Assay results reported in patent US20250230155A1 (Vanderbilt University, priority 2021, published 2025).

Target: T1, human mAChR M4 (Homo sapiens, UniProt P08173)
T1 construct: expressed in transfected cells
T1 sequence (P08173 1-479): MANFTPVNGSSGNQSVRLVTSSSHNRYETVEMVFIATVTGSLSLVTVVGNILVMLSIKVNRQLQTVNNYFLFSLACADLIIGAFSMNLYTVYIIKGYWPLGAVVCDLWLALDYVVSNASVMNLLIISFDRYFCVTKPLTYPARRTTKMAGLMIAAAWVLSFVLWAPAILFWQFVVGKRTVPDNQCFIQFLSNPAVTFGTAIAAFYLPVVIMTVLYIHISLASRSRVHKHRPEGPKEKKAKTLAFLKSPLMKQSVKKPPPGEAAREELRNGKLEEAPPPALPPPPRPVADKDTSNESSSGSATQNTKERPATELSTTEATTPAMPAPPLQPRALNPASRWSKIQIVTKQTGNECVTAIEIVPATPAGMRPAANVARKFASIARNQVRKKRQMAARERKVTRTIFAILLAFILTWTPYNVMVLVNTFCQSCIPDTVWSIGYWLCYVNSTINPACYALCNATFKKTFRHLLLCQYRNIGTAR
Experiment: mAChR M4 cell-based functional assay (calcium mobilization, CHO-K1 hM4-Gqi5 cells)
Details: for Emax at 30 µM: CHO-K1, % ACh maximum at 30 μM, human M4; for EC50: positive allosteric modulator activity, increase in the EC20 acetylcholine response, CHO-K1 hM4-Gqi5 cells, read-out: Human M4 EC50
How it was run: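 Fluorescent calcium read-out (Fluo-4 AM, FDSS, 1 Hz) in hM4-Gqi5 CHO-K1 cells, 11-point 1:3 compound series. Agonism scored on compound addition, PAM activity as increase of the 144 s EC20 acetylcholine response, antagonism as decrease of the 230 s EC80 response; four-parameter logistic fits give EC50 and Emax.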

| Emax at 30 µM [%] | EC50 [nM] | SMILES |
| --- | --- | --- |
| 72 | 358 | Cc1nc(C)c(C)c(N2CCc3ncc(Oc4cccc(F)c4F)cc3C2)n1 [compound 261, 3-(2,3-difluorophenoxy)-6-(2,5,6-trimethylpyrimidin-4-yl)-5,6,7,8-tetrahydro-1,6-naphthyridine] |
| 77 | 275 | Cc1nc(C)c(C)c(N2CCc3ncc(Oc4ccc(F)cc4F)cc3C2)n1 [compound 262, 3-(2,4-difluorophenoxy)-6-(2,5,6-trimethylpyrimidin-4-yl)-5,6,7,8-tetrahydro-1,6-naphthyridine] |
| 90 | 145 | Cc1nc(C)c(C)c(N2CCc3ncc(Oc4cc(F)ccc4F)cc3C2)n1 [compound 263, 3-(2,5-difluorophenoxy)-6-(2,5,6-trimethylpyrimidin-4-yl)-5,6,7,8-tetrahydro-1,6-naphthyridine] |
| 66 | 1620 | FC(F)(F)c1cnc2c(c1)CN(c1nc(Cl)nc3c1CCCC3)CC2 [compound 264, 2-chloro-4-(3-(trifluoromethyl)-7,8-dihydro-1,6-naphthyridin-6(5H)-yl)-5,6,7,8-tetrahydroquinazoline] |
| – | 1480 | FC(F)(F)c1cnc2c(c1)CN(c1nc(C3CC3)nc3c1CCC3)CC2 [compound 265, 6-(2-cyclopropyl-6,7-dihydro-5H-cyclopenta[d]pyrimidin-4-yl)-3-(trifluoromethyl)-5,6,7,8-tetrahydro-1,6-naphthyridine] |
| 38 | 4570 | FC(F)(F)c1cnc2c(c1)CN(c1nc(C3CC3)nc3c1CCCC3)CC2 [compound 266, 2-cyclopropyl-4-(3-(trifluoromethyl)-7,8-dihydro-1,6-naphthyridin-6(5H)-yl)-5,6,7,8-tetrahydroquinazoline] |
| – | 1030 | Cc1nc2c(c(N3CCc4ncc(C(F)(F)F)cc4C3)n1)CCC2 [compound 267, 6-(2-methyl-6,7-dihydro-5H-cyclopenta[d]pyrimidin-4-yl)-3-(trifluoromethyl)-5,6,7,8-tetrahydro-1,6-naphthyridine] |
| 68 | 4190 | Cc1nc2c(c(N3CCc4ncc(C(F)(F)F)cc4C3)n1)CCCC2 [compound 268, 2-methyl-4-(3-(trifluoromethyl)-7,8-dihydro-1,6-naphthyridin-6(5H)-yl)-5,6,7,8-tetrahydroquinazoline] |
| 89 | 1080 | Cc1ccc(Oc2cnc3c(c2)CN(c2nc(C)nc(C)c2C)CC3)c(F)c1 [compound 269, 3-(2-fluoro-4-methylphenoxy)-6-(2,5,6-trimethylpyrimidin-4-yl)-5,6,7,8-tetrahydro-1,6-naphthyridine] |
| 70 | 896 | Cc1nn(C)cc1-c1cnc2c(c1)CN(c1nc(N3CCOCC3)nc(C)c1C)CC2 [compound 270, 4-(4-(3-(1,3-dimethyl-1H-pyrazol-4-yl)-7,8-dihydro-1,6-naphthyridin-6(5H)-yl)-5,6-dimethylpyrimidin-2-yl)morpholine] |
| 78 | 214 | Cc1nn(C)cc1-c1cnc2c(c1)CN(c1nc(N3CCCC3)nc(C)c1C)CC2 [compound 271, 3-(1,3-dimethyl-1H-pyrazol-4-yl)-6-(5,6-dimethyl-2-(pyrrolidin-1-yl)pyrimidin-4-yl)-5,6,7,8-tetrahydro-1,6-naphthyridine] |
| 78 | 466 | Cc1nn(C)cc1-c1cnc2c(c1)CN(c1nc(NC3CC3)nc(C)c1C)CC2 [compound 272, N-cyclopropyl-4-(3-(1,3-dimethyl-1H-pyrazol-4-yl)-7,8-dihydro-1,6-naphthyridin-6(5H)-yl)-5,6-dimethylpyrimidin-2-amine] |
| 92 | 639 | Cc1nn(C)cc1-c1cnc2c(c1)CN(c1nc(NC3CCOC3)nc(C)c1C)CC2 (stereo not shown) [compound 273, 4-(3-(1,3-dimethyl-1H-pyrazol-4-yl)-7,8-dihydro-1,6-naphthyridin-6(5H)-yl)-5,6-dimethyl-N-(tetrahydrofuran-3-yl)pyrimidin-2-amine] |
| 87 | 735 | Cc1nn(C)cc1-c1cnc2c(c1)CN(c1nc(NCC(C)(C)O)nc(C)c1C)CC2 [compound 274, 1-((4-(3-(1,3-dimethyl-1H-pyrazol-4-yl)-7,8-dihydro-1,6-naphthyridin-6(5H)-yl)-5,6-dimethylpyrimidin-2-yl)amino)-2-methylpropan-2-ol] |
| 86 | 981 | Cc1nn(C)cc1-c1cnc2c(c1)CN(c1nc(N3CCN(C)CC3)nc(C)c1C)CC2 [compound 275, 3-(1,3-dimethyl-1/-pyrazol-4-yl)-6-(5,6-dimethyl-2-(4-methylpiperazin-1-yl)pyrimidin-4-yl)-5,6,7,8-tetrahydro-1,6-naphthyridine] |
| 100 | 377 | Cc1nc(N2CCOCC2)nc(N2CCc3ncc(Nc4ccnn4C)cc3C2)c1C [compound 276, 6-(5,6-dimethyl-2-morpholinopyrimidin-4-yl)-N-(1-methyl-1H-pyrazol-5-yl)-5,6,7,8-tetrahydro-1,6-naphthyridin-3-amine] |
| 98 | 92 | Cc1nc(N2CCCC2)nc(N2CCc3ncc(Nc4ccnn4C)cc3C2)c1C [compound 277, 6-(5,6-dimethyl-2-(pyrrolidin-1-yl)pyrimidin-4-yl)-N-(1-methyl-1H-pyrazol-5-yl)-5,6,7,8-tetrahydro-1,6-naphthyridin-3-amine] |
| 95 | 178 | Cc1nc(NC2CC2)nc(N2CCc3ncc(Nc4ccnn4C)cc3C2)c1C [compound 278, 6-(2-(cyclopropylamino)-5,6-dimethylpyrimidin-4-yl)-N-(1-methyl-1H-pyrazol-5-yl)-5,6,7,8-tetrahydro-1,6-naphthyridin-3-amine] |
| 103 | 191 | Cc1nc(NC2CCOC2)nc(N2CCc3ncc(Nc4ccnn4C)cc3C2)c1C (stereo not shown) [compound 279, 6-(5,6-dimethyl-2-((tetrahydrofuran-3-yl)amino)pyrimidin-4-yl)-N-(1-methyl-1H-pyrazol-5-yl)-5,6,7,8-tetrahydro-1,6-naphthyridin-3-amine] |
| 105 | 261 | Cc1nc(NCC(C)(C)O)nc(N2CCc3ncc(Nc4ccnn4C)cc3C2)c1C [compound 280, 1-((4,5-dimethyl-6-(3-((1-methyl-1H-pyrazol-5-yl)amino)-7,8-dihydro-1,6-naphthyridin-6(5/I)-yl)pyrimidin-2-yl)amino)-2-methylpropan-2-ol] |
| – | 3290 | FC(F)(F)c1cnc2c(c1)CN(c1nc(Cl)nc3c1COC3)CC2 [compound 281, 2-chloro-4-(3-(trifluoromethyl)-7,8-dihydro-1,6-naphthyridin-6(5H)-yl)-5,7-dihydrofuro[3,4-d]pyrimidine] |
| – | 302 | Clc1nc2c(c(N3CCc4ncc(N5CCCn6nccc65)cc4C3)n1)COC2 [compound 282, 2-chloro-4-(3-(6,7-dihydropyrazolo[1,5-a]pyrimidin-4(5H)-yl)-7,8-dihydro-1,6-naphthyridin-6(5H)-yl)-5,7-dihydrofuro[3,4-d]pyrimidine] |
| – | 368 | Clc1nc2c(c(N3CCc4ncc(N5CCOc6ncccc65)cc4C3)n1)COC2 [compound 283, 1-(6-(2-chloro-5,7-dihydrofuro[3,4-d]pyrimidin-4-yl)-5,6,7,8-tetrahydro-1,6-naphthyridin-3-yl)-2,3-dihydro-1H-pyrido[2,3-b][1,4]oxazine] |
| 30 | 1220 | Cc1nn(C)cc1-c1cnc2c(c1)CN(c1nc(Cl)nc3c1COC3)CC2 [compound 285, 2-chloro-4-(3-(1,3-dimethyl-1H-pyrazol-4-yl)-7,8-dihydro-1,6-naphthyridin-6(5H)-yl)-5,7-dihydrofuro[3,4-d]pyrimidine] |
| 33 | 504 | Clc1nc2c(c(N3CCc4ncc(-c5cnn(C6CC6)c5)cc4C3)n1)COC2 [compound 286, 2-chloro-4-(3-(1-cyclopropyl-1H-pyrazol-4-yl)-7,8-dihydro-1,6-naphthyridin-6(5H)-yl)-5,7-dihydrofuro[3,4-d]pyrimidine] |
| – | 584 | Clc1nc2c(c(N3CCc4ncc(C5CC5)cc4C3)n1)COC2 [compound 287, 2-chloro-4-(3-cyclopropyl-7,8-dihydro-1,6-naphthyridin-6(5H)-yl)-5,7-dihydrofuro[3,4-d]pyrimidine] |
| – | 1220 | Cn1nccc1Nc1cnc2c(c1)CN(c1nc(Cl)nc3c1COC3)CC2 [compound 288, 6-(2-chloro-5,7-dihydrofuro[3,4-d]pyrimidin-4-yl)-N-(1-methyl-1H-pyrazol-5-yl)-5,6,7,8-tetrahydro-1,6-naphthyridin-3-amine] |
| – | 918 | Fc1ncccc1Nc1cnc2c(c1)CN(c1nc(Cl)nc3c1COC3)CC2 [compound 289, 6-(2-chloro-5,7-dihydrofuro[3,4-d]pyrimidin-4-yl)-N-(2-fluoropyridin-3-yl)-5,6,7,8-tetrahydro-1,6-naphthyridin-3-amine] |
| – | 991 | Fc1ccccc1Oc1cnc2c(c1)CN(c1nc(Cl)nc3c1COC3)CC2 [compound 290, 2-chloro-4-(3-(2-fluorophenoxy)-7,8-dihydro-1,6-naphthyridin-6(5H)-yl)-5,7-dihydrofuro[3,4-d]pyrimidine] |
